According to publication PMC5428418, “Differential expression of chemosensory-protein genes in midguts in response to diet of Spodoptera litura” (Scientific Reports, 2017):
Like-named read-outs stand apart in the source and are kept apart here. One block for each molecule: values may come before it.

Experiments:
recombinant SlitCSP11 = recombinant SlitCSP11 (Spodoptera litura, UniProt A0A0P0EM27); assay type: binding; conditions: for binding affinity to SlitCSP11 (in words): competitive binding with 1-NPN; for IC50 SlitCSP11: competitor's concentration halving the initial fluorescence, protein 2 μM, ligand 0 to 20 μM, 1-NPN probe; for Kd SlitCSP11: dissociation constant of the competitor calculated from IC50: KD = [IC50]/(1 + [1-NPN]/K1-NPN)
Chain of recombinant SlitCSP11 (A0A0P0EM27 entry or part of it): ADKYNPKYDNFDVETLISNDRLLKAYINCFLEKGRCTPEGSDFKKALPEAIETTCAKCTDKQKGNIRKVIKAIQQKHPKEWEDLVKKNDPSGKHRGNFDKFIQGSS
Excerpt: (§1) The curves were linearized by Scatchard plots.

recombinant SlitCSP3 = recombinant SlitCSP3 (Spodoptera litura, UniProt A0A9J7EMU8); assay type: binding; conditions: for binding affinity to SlitCSP3 (in words): competitive binding with 1-NPN
Chain of recombinant SlitCSP3 (A0A9J7EMU8 entry or part of it): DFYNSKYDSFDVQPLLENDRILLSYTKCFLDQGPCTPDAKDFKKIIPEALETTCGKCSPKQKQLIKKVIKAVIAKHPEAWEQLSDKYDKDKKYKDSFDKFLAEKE
Excerpt: as §1

recombinant SlitCSP8 = recombinant SlitCSP8 (Spodoptera litura, UniProt A0A0P0EUM0); test: Fluorescence competitive binding assay (1-NPN displacement), SlitCSP8; conditions: for binding affinity to SlitCSP8 (in words): competitive binding with 1-NPN; for IC50 SlitCSP8 / IC50: competitor's concentration halving the initial fluorescence, protein 2 μM, ligand 0 to 20 μM, 1-NPN probe; for Kd SlitCSP8 / Kd: dissociation constant of the competitor calculated from IC50: KD = [IC50]/(1 + [1-NPN]/K1-NPN); for IC50: read-out: IC50 SlitCSP8; for Kd: read-out: Kd SlitCSP8
Chain of recombinant SlitCSP8 (A0A0P0EUM0 18-128 with tags or gaps limits assumed): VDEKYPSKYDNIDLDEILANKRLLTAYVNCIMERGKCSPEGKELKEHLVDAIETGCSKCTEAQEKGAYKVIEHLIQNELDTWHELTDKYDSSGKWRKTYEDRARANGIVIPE
Description: The fluorescence spectra were recorded on an F-4500 FL Fluorescence Spectrophotometer (HITACHI) in a 1 cm light path quartz cuvette at 23 °C. The slit width used for excitation and emission was 5 nm. The compounds used to investigate the binding abilities of SlitCSPs were purchased from Sigma-Aldrich with the highest purity and stored as specified instruction by the manufacturer. […] The fluorescent probe N-phenyl-1-naphthylamine (1 − NPN) and all ligands used in competition experiments were dissolved in HPLC purity grade methanol. […] And then, 2 μM of protein was added and titrated with aliquots of 1 mM 1 − NPN to final concentrations of 2 to 20 μM. […] All values reported were obtained from three independent measurements. The corresponding to the maximum fluorescence emission was plotted against the ligand concentrations for the determination of the binding constants. The curves were linearized by Scatchard plots.

[1] = competitor's concentration halving the initial fluorescence, protein 2 μM, ligand 0 to 20 μM, 1-NPN probe
[2] = dissociation constant of the competitor calculated from IC50: KD = [IC50]/(1 + [1-NPN]/K1-NPN)

Structure (SMILES): CCc1ccco1 [2-Ethylfuran]
binding affinity to SlitCSP11 (in words) (recombinant SlitCSP11): poor affinities
IC50 SlitCSP11 (recombinant SlitCSP11): u.d
Kd SlitCSP11 (recombinant SlitCSP11): u.d
binding affinity to SlitCSP3 (in words) (recombinant SlitCSP3): poor affinities
IC50 SlitCSP3 (recombinant SlitCSP3; [1]): u.d
Kd SlitCSP3 (recombinant SlitCSP3; [2]): u.d
binding affinity to SlitCSP8 (in words) (recombinant SlitCSP8): poor affinities
IC50 SlitCSP8 (recombinant SlitCSP8): u.d
Kd SlitCSP8 (recombinant SlitCSP8): u.d

Structure (SMILES): O=Cc1ccc(CO)o1 [5-(Hydroxymethyl)furfural]
IC50 SlitCSP11 (recombinant SlitCSP11): u.d
Kd SlitCSP11 (recombinant SlitCSP11): u.d
IC50 SlitCSP8 (recombinant SlitCSP8): u.d
Kd SlitCSP8 (recombinant SlitCSP8): u.d

Structure (SMILES): O=Cc1ccccc1 [Benzaldehyde]
IC50 (recombinant SlitCSP8): 5.26 µM
Kd (recombinant SlitCSP8): 7.47 µM

Structure (SMILES): N#Cc1ccccc1 [Benzonitrile]
binding affinity to SlitCSP11 (in words) (recombinant SlitCSP11): poor affinities
IC50 SlitCSP11 (recombinant SlitCSP11): u.d
Kd SlitCSP11 (recombinant SlitCSP11): u.d
binding affinity to SlitCSP3 (in words) (recombinant SlitCSP3): poor affinities
IC50 SlitCSP3 (recombinant SlitCSP3; [1]): u.d
Kd SlitCSP3 (recombinant SlitCSP3; [2]): u.d
binding affinity to SlitCSP8 (in words) (recombinant SlitCSP8): poor affinities
IC50 SlitCSP8 (recombinant SlitCSP8): u.d
Kd SlitCSP8 (recombinant SlitCSP8): u.d

Structure (SMILES): OCc1ccccc1 [Benzyl alcohol]
IC50 SlitCSP3 (recombinant SlitCSP3; [1]): u.d
Kd SlitCSP3 (recombinant SlitCSP3; [2]): u.d
binding affinity to SlitCSP8 (in words) (recombinant SlitCSP8): at low concentrations

Structure (SMILES): CCCCN=C=S [Butyl isothiocyanate]
IC50 SlitCSP3 (recombinant SlitCSP3; [1]): u.d
Kd SlitCSP3 (recombinant SlitCSP3; [2]): u.d
IC50 SlitCSP8 (recombinant SlitCSP8): u.d
Kd SlitCSP8 (recombinant SlitCSP8): u.d

binding affinity to SlitCSP11 (in words) (recombinant SlitCSP11): poor affinities
IC50 SlitCSP11 (recombinant SlitCSP11): u.d
Kd SlitCSP11 (recombinant SlitCSP11): u.d
binding affinity to SlitCSP3 (in words) (recombinant SlitCSP3): poor affinities
IC50 SlitCSP3 (recombinant SlitCSP3; [1]): u.d
Kd SlitCSP3 (recombinant SlitCSP3; [2]): u.d
binding affinity to SlitCSP8 (in words) (recombinant SlitCSP8): poor affinities
IC50 SlitCSP8 (recombinant SlitCSP8): u.d
Kd SlitCSP8 (recombinant SlitCSP8): u.d
Structure (SMILES): CCCCCCCCCC#N [Decanenitrile]

Structure (SMILES): O=Cc1ccco1 [Furan-2-carboxaldehyde]
IC50 SlitCSP3 (recombinant SlitCSP3; [1]): u.d
Kd SlitCSP3 (recombinant SlitCSP3; [2]): u.d
IC50 SlitCSP8 (recombinant SlitCSP8): u.d

Structure (SMILES): CCCCCCCCCCCCCCCC(=O)O [Hexadecanoic acid]
IC50 SlitCSP3 (recombinant SlitCSP3; [1]): u.d
Kd SlitCSP3 (recombinant SlitCSP3; [2]): u.d
IC50 SlitCSP8 (recombinant SlitCSP8): u.d
Kd SlitCSP8 (recombinant SlitCSP8): u.d

Structure (SMILES): CCCCCC=O [Hexanal]
binding affinity to SlitCSP11 (in words) (recombinant SlitCSP11): poor affinities
IC50 SlitCSP11 (recombinant SlitCSP11): u.d
Kd SlitCSP11 (recombinant SlitCSP11): u.d
Kd SlitCSP3 (recombinant SlitCSP3): u.d
binding affinity to SlitCSP3 (in words) (recombinant SlitCSP3): poor affinities
IC50 SlitCSP3 (recombinant SlitCSP3; [1]): u.d

binding affinity to SlitCSP8 (in words) (recombinant SlitCSP8): at low concentrations
Structure (SMILES): NC(=O)c1ccncc1 [Isonicotinamide]

IC50 SlitCSP8 (recombinant SlitCSP8): ud
Kd SlitCSP8 (recombinant SlitCSP8): u.d
Structure (SMILES): CC1CCC(C(C)C)C(O)C1 (stereo not shown) [Menthol]

Structure (SMILES): S=C=NCCc1ccccc1 [Phenethyl isothiocyanate]
IC50 (recombinant SlitCSP8): 4.34 µM
Kd (recombinant SlitCSP8): 6.17 µM

Structure (SMILES): c1ccncc1 [Pyridine]
IC50 SlitCSP3 (recombinant SlitCSP3): u.d
Kd SlitCSP3 (recombinant SlitCSP3): u.d
IC50 SlitCSP8 (recombinant SlitCSP8): u.d
Kd SlitCSP8 (recombinant SlitCSP8): u.d

Structure (SMILES): C=Cc1ccccc1 [Styrene]
IC50 SlitCSP3 (recombinant SlitCSP3; [1]): u.d
Kd SlitCSP3 (recombinant SlitCSP3; [2]): u.d
IC50 SlitCSP8 (recombinant SlitCSP8): u.d
Kd SlitCSP8 (recombinant SlitCSP8): u.d

Structure (SMILES): CC/C=C\CCO [cis-3-Hexen-1-ol]
IC50 SlitCSP11 (recombinant SlitCSP11): u.d
Kd SlitCSP11 (recombinant SlitCSP11): u.d
IC50 SlitCSP3 (recombinant SlitCSP3; [1]): u.d
Kd SlitCSP3 (recombinant SlitCSP3; [2]): u.d
binding affinity to SlitCSP8 (in words) (recombinant SlitCSP8): at low concentrations

IC50 SlitCSP11 (recombinant SlitCSP11): u.d
Kd SlitCSP11 (recombinant SlitCSP11): u.d
Structure (SMILES): CCC/C=C/C(=O)O [trans-2-Hexenoic acid]
